What was measured:
Test in all cases: Bliss excess, mean over the matrix (fraction); higher = more synergy
[1] = system: KYSE-450 (Esophageal Squamous Cell Carcinoma)
Outline: (§1)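 After 24 hours at 37°C and 5% CO2 in 1536-well plates, cells in DMEM/F12 or RPMI plus 10% FBS received two-drug dose matrices for 72 hours. Viability came from CellTiter-Glo 2.0 luminescence and was scaled as inhibition, anchored at 0 by vehicle wells and at 1 by blank wells. Combination Emax is taken as the second-highest inhibition in the matrix, and Bliss excess as the observed combination effect less EA + EB − EA·EB, with EA and EB the single-agent effects.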

[2] = system: RF-48 (B-Cell Non-Hodgkin's Lymphoma)
Outline: as §1

[3] = system: NCI-H727 (Other Solid Carcinomas)
Outline: as §1

[4] = system: KARPAS-299 (T-Cell Non-Hodgkin's Lymphoma)
Outline: as §1

ACHN (Kidney Carcinoma) = system: ACHN (Kidney Carcinoma)
Outline: as §1

[5] = system: EoL-1-cell (Acute Myeloid Leukemia)
Outline: as §1

UACC-62 (Melanoma) = system: UACC-62 (Melanoma)
Outline: as §1

TK10 (Kidney Carcinoma) = system: TK10 (Kidney Carcinoma)
Outline: as §1

[6] = system: AMO-1 (Plasma Cell Myeloma)
Outline: as §1

[7] = system: Caov-4 (Ovarian Carcinoma)
Outline: as §1

EW-24 (Ewing's Sarcoma) = system: EW-24 (Ewing's Sarcoma)
Outline: as §1

D-263MG (Glioblastoma) = system: D-263MG (Glioblastoma)
Outline: as §1

YH-13 (Glioblastoma) = system: YH-13 (Glioblastoma)
Outline: as §1

TGW (Neuroblastoma) = system: TGW (Neuroblastoma)
Outline: as §1

[8] = system: Ca9-22 (Head and Neck Carcinoma)
Outline: as §1

NB69 (Neuroblastoma) = system: NB69 (Neuroblastoma)
Outline: as §1

Compound | Bliss excess [1] | Bliss excess [2] | Bliss excess [3] | Bliss excess [4] | Bliss excess (ACHN (Kidney Carcinoma)) | Bliss excess [5] | Bliss excess (UACC-62 (Melanoma)) | Bliss excess (TK10 (Kidney Carcinoma)) | Bliss excess [6] | Bliss excess [7] | Bliss excess (EW-24 (Ewing's Sarcoma)) | Bliss excess (D-263MG (Glioblastoma)) | Bliss excess (YH-13 (Glioblastoma)) | Bliss excess (TGW (Neuroblastoma)) | Bliss excess [8] | Bliss excess (NB69 (Neuroblastoma))
Cc1nc(-c2cn3c(n2)-c2ccc(-c4cnn(C(C)(C)C(N)=O)c4)cc2OCC3)n(C(C)C)n1 [Taselisib] + O=C(Nc1ccc2[nH]nc(-c3ccncc3)c2c1)[C@@H]1CCN(CC(=O)N2CCN(c3ccc(-c4ncccn4)cc3)CC2)C1 [SCH772984] (first compound max 10 µM, 7x7, partner max 5 µM) | 0.0365 | 0.102 | 0.0252 | 0.147 | 0.0219 | 0.191 | -0.035 | -0.008 | 0.133 | 0.0269 | 0.0424 | 0.0047 | -0.0586 | 0.033 | 0.116 | -0.0509
C=CCn1c(=O)c2cnc(Nc3ccc(N4CCN(C)CC4)cc3)nc2n1-c1cccc(C(C)(C)O)n1 [AZD1775] + Nc1ccn([C@@H]2O[C@H](CO)[C@@H](O)C2(F)F)c(=O)n1 [Gemcitabine] (first compound max 1 µM, partner max 0.3 µM) | 0.0717 | -0.005 | -0.0278 | 0.0851 | -0.0338 | 0.0391 | 0.0399 | -0.0299 | 0.157 | 0 | -0.0627 | 0.0297 | 0.0208 | -0.0355 | 0.0821 | 0.0419
C[C@@H](Nc1cc(F)cc(F)c1)c1cc(C(=O)N(C)C)cc2c(=O)cc(N3CCOCC3)oc12 [AZD8186] + C1CN(CCC1(C(=O)N[C@@H](CCO)C2=CC=C(C=C2)Cl)N)C3=NC=NC4=C3C=CN4 [AZD5363] (first compound max 10 µM, 7x7, partner max 10 µM) | 0.0035 | -0.033 | -0.0149 | 0.0092 | 0.04 | 0 | -0.0382 | -0.0661 | 0.0309 | -0.0338 | -0.0033 | -0.0348 | 0.0106 | -0.0683 | -0.0508 | 0.0248
CC1(C)CCC(CN2CCN(c3ccc(C(=O)NS(=O)(=O)c4ccc(NCC5CCOCC5)c([N+](=O)[O-])c4)c(Oc4cnc5[nH]ccc5c4)c3)CC2)=C(c2ccc(Cl)cc2)C1 [Venetoclax] + CS(=O)(=O)CCNCc1ccc(-c2ccc3ncnc(Nc4ccc(OCc5cccc(F)c5)c(Cl)c4)c3c2)o1 [Lapatinib] (first compound max 1 µM, 7x7, partner max 10 µM) | -0.0413 | 0.0123 | -0.012 | 0.0202 | -0.0198 | 0.0351 | -0.0044 | -0.0141 | 0.0614 | -0.0353 | -0.0183 | -0.0669 | -0.04 | -0.0223 | 0.0232 | 0.0877
CN(CCO)CC[C@H](CSc1ccccc1)Nc1ccc(S(=O)(=O)NC(=O)c2ccc(N3CCC([C@@H](O)c4ccccc4-c4ccc(Cl)cc4)CC3)cc2)cc1S(=O)(=O)C(F)(F)F [AZD4320] + CS(=O)(=O)CCNCc1ccc(-c2ccc3ncnc(Nc4ccc(OCc5cccc(F)c5)c(Cl)c4)c3c2)o1 [Lapatinib] (first compound max 1 µM, 7x7, partner max 10 µM) | -0.0459 | -0.0184 | 0.0904 | 0.0265 | -0.011 | 0.05 | -0.0143 | -0.0942 | 0.0695 | -0.0144 | 0.0333 | -0.0288 | 0.0183 | 0.0959 | 0.0479 | 0.0465
C[C@@H]1COCCN1c1cc(C2([S@](C)(=N)=O)CC2)nc(-c2ccnc3[nH]ccc23)n1 [AZD6738] + Nc1ccn([C@@H]2O[C@H](CO)[C@@H](O)C2(F)F)c(=O)n1 [Gemcitabine] (first compound max 10 µM, 7x7, partner max 0.3 µM) | 0.104 | 0.0277 | 0.0121 | 0.0607 | 0.0003 | -0.081 | 0.0114 | -0.0417 | 0.0048 | 0.0431 | 0.0086 | 0.102 | 0.0228 | 0.0013 | 0.0536 | 0.0147
CS(=O)(=O)CCNCc1ccc(-c2ccc3ncnc(Nc4ccc(OCc5cccc(F)c5)c(Cl)c4)c3c2)o1 [Lapatinib] + Cn1cnc2c(F)c(Nc3ccc(Br)cc3Cl)c(C(=O)NOCCO)cc21 [Selumetinib] (first compound max 10 µM, 7x7, partner max 10 µM) | -0.016 | -0.0137 | 0.0299 | 0.0736 | 0.0251 | -0.038 | -0.0119 | -0.008 | 0.0408 | 0.0493 | -0.0473 | -0.0859 | -0.0095 | -0.079 | 0.0498 | -0.0397
O=C(c1cc(Cc2n[nH]c(=O)c3ccccc23)ccc1F)N1CCN(C(=O)C2CC2)CC1 [Olaparib] + CN(CC[C@H](CSC1=CC=CC=C1)NC2=C(C=C(C=C2)S(=O)(=O)NC(=O)C3=CC=C(C=C3)N4CCC(CC4)[C@H](C5=CC=CC=C5C6=CC=C(C=C6)Cl)O)S(=O)(=O)C(F)(F)F)CCO [AZD4320] (first compound max 10 µM, 7x7, partner max 1 µM) | -0.0434 | 0.0454 | -0.052 | 0.109 | -0.0164 | 0.0717 | -0.0105 | -0.0439 | -0.0111 | -0.0392 | 0.0097 | -0.0672 | 0.0012 | -0.0479 | 0.006 | 0.0663
